Values quoted from earlier work, collected in patent US12121558B2 (priority 2019, dated 2024).

In the case of O=c1c(O)c(-c2ccc(O)c(O)c2)oc2cc(O)cc(O)c12 [quercetin, Quercetin], the elimination half-life (after oral ingestion of quercetin containing foods or supplements) is listed as 1 to 2 h and the bioavailability (in humans, low and highly variable) is listed as 0-50%.
